From article PMC5190008, “BO-1055, a novel DNA cross-linking agent with remarkable low myelotoxicity shows potent activity in sarcoma models” (Oncotarget, 2016)

Tests used:
[1] = tested on: CCRF-CEM/Taxol cells; design: method as in PMID 21106377; conditions: CCRF-CEM/Taxol ref 6; cited from earlier work
[2] = tested on: leukemia cell lines; design: method as in PMID 21106377; conditions: leukemia cell lines ref 6; cited from earlier work
[3] = tested on: A673 spheroids; assay: Spheroid assay in 3D culture (methylcellulose); type: cell-based, human
Experimental: A673 cells were seeded on flat bottom non attachment 24 well plates (1000 cells/well) in triplicate using 1.2 % methylcellulose (Dow Chemical, Waterloo, NY) mixed with 20% FCS and specified concentrations of BO-1055 or 4HC as shown in Figure 1D. Samples were incubated at 37°C / 5 % CO2 and colonies were scored 14 days after plating.

[4] = tested on: Human MSC; assay: Comet assay; type: cell-based; conditions: 3h
Experimental: (§1) We used comet assay, which includes single cell gel electrophoresis to assess DNA breaks when exposed to radiation or DNA damaging agents. […] Olive moment (micrometers), a product of tail DNA% and the distance between the centroids of head and tail, is an accurate parameter of DNA damage. […] Gamma-H2AX (γH2AX) phosphorylation is the initial step in DNA damage response following double stranded breaks and is responsible for recruiting DNA repair proteins.
(§2) Comet assay was performed according to the protocol described earlier. Cells were treated with BO-1055 at 2μM concentration for 3h, or immediately after exposure to 8Gy radiation after which they were isolated and mixed with 1% low melting point agarose in a tube. The cells in agarose were transferred to slides coated with normal melting point agarose. The agarose-immobilized cells were lysed in alkaline solution and the agarose trapped DNA was electrophoresed. DNA was stained with ethidium bromide and image acquisition was done immediately. DNA damage quantification was performed using OpenComet v1.3, an open-source software plugin in Image J 1.47v software (NIH, USA) for automated analysis. Olive moment, which is the product of tail DNA% and the distance between the intensity-weighted centroids of head and tail was taken from the output for analysis.

[5] = tested on: A673 cells; assay: Comet assay; type: cell-based, human; conditions: A673, 3h
Experimental: as §1
as §2, with “Cells were treated with BO-1055 at 2μM concentration for 3h, or immediately after exposure to 8Gy radiation after which they were isolated and mixed with 1% low melting point agarose in a tube.” left out

[6] = tested on: patient derived Ewing sarcoma xenografts; assay: Cyclophosphamide resistant patient-derived Ewing sarcoma xenografts; type: in vivo, NSG mice; conditions: 30mg/kg/dose i.v. q2d x 4, tumors progressed to 500mm^3 after MTD cyclophosphamide
Experimental: Patient derived xenografts were established from Ewing sarcoma patients who progressed through first line chemotherapy that included cyclophosphamide, doxorubicin, vincristine, ifosfamide and etoposide (PS3). When these Ewing sarcoma xenografts (n = 10) reached 100mm^3, they were randomized to control and treatment groups.
All mouse experiments were performed at the animal core facility at MSKCC under an approved protocol following the IACUC guidelines. Five to seven-week-old NOD/SCID IL2R gamma null (NSG) mice (bred at the Mouse Genetics Core Facility, MSKCC) were used for in vivo experiments. All mouse experiments were done following the IACUC guidelines at the animal facility at MSKCC. Tumors were induced using 10^6 A673 cells or A204 cells in 0.2ml 1:1 cellular medium, Matrigel matrix (BD Bioscience, Bedford, MA) and injected subcutaneously (s.q) into the right flank. The tumors were measured every 3 d with a caliper, and the diameters were recorded. Tumor volume was calculated by the formula a^2 b/2 where ‘a’ is the smallest and ‘b’ is the largest diameter. When the tumors reached 100mm^3, we randomized mice into control and drug treatment groups. Treatment groups received BO-1055 by tail vein injection at 10mg/kg, 20mg/kg and 30mg/kg q2d x 5 doses for mice bearing A673 xenografts. BO-1055 was given at 30mg/kg q2d x 5 doses for mice bearing A204 xenografts. […]

[7] = design: method as in PMID 23353940; conditions: rats, HPLC-PDA ref 7; cited from earlier work
[8] = tested on: caspase 3/7 in A673 cells; assay: Caspase 3/7 activity (ApoTox-Glo Triplex Assay); type: cell-based, human; conditions: A673, 48h and 72h, concentration dependent
Experimental: A673 cells were plated at a density of 5 × 10^3 cells/well in 96 well plates. At 48h and 72h post drug exposure, 100μl of Caspase-Glo 3/7 reagent provided in the ApoTox -Glo Triplex Assay (Promega, USA) was added as per the protocol and the luminescence, which indicates caspase activation, was measured using the Synergy H1 hybrid microplate reader.

CN(C)CCNC(=O)c1cccc(NC(=O)Nc2ccc(N(CCCl)CCCl)cc2)c1 [BO-1055]
resistance of CCRF-CEM/Taxol cells [1]: 9.4 fold
cross resistance to taxol or vinblastine [2]: little or no cross resistance
concentration giving complete inhibition of spheroids ([3]; A673 spheroids in methylcellulose, scored 14 days after plating): 0.5 µM
fold lower concentration inhibiting A673 spheroids compared to 4-HC ([3]; BO-1055 vs 4-HC): 10 fold
olive moment relative to radiation (XRT, 8Gy) [4]: relatively less
olive moment relative to radiation (XRT, 8Gy) [5]: comparable
comet tail size (DNA breaks) ([5]; increasing concentration): increased tail size
tumor response [6]: tumor regression
elimination [7]: slow elimination
tissue distribution [7]: rapid distribution to all organs except brain
caspase 3/7 activity [8]: Activation
